Measurements reported in paper PMC5698418 (Nature Communications, 2017).
Where “and” joins values, the source holds several entries; their conditions need not be identical. Equal entries are not always repeated. Structures can show the parent of a compound that is named as a salt. Where two headings read alike, the source gives them in different places.

Tested on: BDNF-induced nuclear Arc expression in primary cortical neurons
Assay: Chemogenomic screen: high-content image-based assay of BDNF-induced nuclear Arc expression (96-well)
Assay type: cell-based, mouse
Protocol: To increase the throughput of our pharmacological screening for modulators of Arc, the above mentioned assay was adapted to cultures of mouse primary cortical neurons in 96-well plates.
All 319 compounds were initially tested at a final concentration of 16.7 µM with three biological replicates.
Screening of compounds in the chemogenomic library was carried out using DIV13 primary forebrain cortical neurons cultured on poly-L-lysine/laminin-coated 96-well plates (Ibidi USA, Madison, WI). Cells were seeded at a density of 30,000 cells per well and treated with the compound library and BDNF according to the experimental design presented in Fig. 3a. After experimental treatment, cells were processed for Arc and acetyl-H3K9 immunocytochemistry according to the protocol described above. Both antigens (Arc and acetyl-H3K9) were imaged using an IN Cell Analyzer 6000 imaging system and a ×40 objective. […] High-throughput quantification of nuclear Arc immunofluorescence signal was performed in a similar fashion than the low-throughput procedure described above but with the exception that acetyl-H3K9 was used as a nuclear mask to guide the automated quantification of nuclear Arc immunofluorescence signal.

[1] = BDNF-induced nuclear Arc expression, primary cortical neurons, chemogenomic screen
[2] = chemogenomic (SMART) screen, BDNF-induced nuclear Arc expression, primary cortical neurons, BDNF control 19.5
[3] = nuclear Arc-positive cells relative to DMSO + BDNF control, negative values = decrease
[4] = nuclear Arc-positive cells relative to DMSO control (BDNF), negative = decrease

Molecule	Percentage of cell with nuclear Arc immunostaining above 2σ threshold [2]	Fold-change — Normalized to DMSO control (BDNF) [3]	also measured
CNC(C)C1CCC(N)C(OC2C(N)CC(N)C(OC3OCC(C)(O)C(NC)C3O)C2O)O1 (stereo not shown) [Gentamicin]	–	–	Percentage of cell with nuclear Arc immunostaining above 2σ threshold [1]: 10.3%
COc1ccc2cccc(CCNC(C)=O)c2c1 [Agomelatine]	17.6%	–	–
CN1C(=O)CC(c2ccccc2)C1=O (stereo not shown) [Phensuximide]	24.8%	1.3 fold	–
Dihydroergotoxine mesylate	24.3%	1.2 fold	–
O=C(/C=C/C=C/c1ccc2c(c1)OCO2)N1CCCCC1 [Piperine]	18.5%	–	–
O=C(O)c1cc2cc(O)c(O)cc2c(C(=O)c2ccc(O)c(O)c2)n1 [NBI-31772]	–	–	Percentage of cell with nuclear Arc immunostaining above 2σ threshold: 2.7%; Fold-change — Normalized to DMSO control (BDNF) [4]: -7.3 fold
Eburnamonine (-)	18.5%	-1.1 fold	–
CN[C@H]1CC[C@@H](c2ccc(Cl)c(Cl)c2)c2ccccc21 [Sertraline]	–	–	Percentage of cell with nuclear Arc immunostaining above 2σ threshold [1]: 0.0%
O=C1Cc2cc(CCN3CCN(c4nsc5ccccc45)CC3)c(Cl)cc2N1 [Ziprasidone]	–	–	Percentage of cell with nuclear Arc immunostaining above 2σ threshold [1]: 3.3%
Cc1cc(C(=O)NNCc2ccccc2)no1 [Isocarboxazid]	21.2%	1.1 fold	–
CCN1CCCC1CNC(=O)c1cc(S(N)(=O)=O)ccc1OC (stereo not shown) [Sulpiride]	26.5%	1.4 fold	–
O=C(COc1ccc(Cl)cc1)N1CCN(Cc2ccc3c(c2)OCO3)CC1 [Fipexide]	41.7%	2.1 fold	–
CN1CCN(C2=Nc3ccccc3Oc3ccc(Cl)cc32)CC1 [Loxapine]	21.2%	1.1 fold	–
CN(C)CCc1c[nH]c2ccc(C[C@H]3COC(=O)N3)cc12 [Zolmitriptan]	42.5%	2.2 fold	–
CCN(CC)C(=O)/C(C#N)=C/c1cc(O)c(O)c([N+](=O)[O-])c1 [Entacapone]	27.9%	1.4 fold	–
OC[C@H]1O[C@@H](OCCc2ccc(O)cc2)[C@H](O)[C@@H](O)[C@@H]1O [Salidroside]	30.7%	1.6 fold	–
CC(C)CNC(=O)/C=C/C=C/c1ccc2c(c1)OCO2 [Piperlonguminine]	23.0%	1.2 fold	–
C1CCN2C[C@@H]3C[C@@H](CN4CCCC[C@@H]34)[C@H]2C1 [Sparteine]	–	1.3 fold	Percentage of cell with nuclear Arc immunostaining above 2σ threshold: 25.6%
Cn1cc(C2=C(c3coc4ccccc34)C(=O)NC2=O)c2cc(Br)ccc21 [ING-135]	–	1.7 fold	Percentage of cell with nuclear Arc immunostaining above 2σ threshold: 34.1%

Molecule	Percentage of cell with nuclear Arc immunostaining above 2σ threshold [2]	Fold-change — Normalized to DMSO control (BDNF) [3]	also measured
CNC1CC(c2ccc(Cl)c(Cl)c2)c2ccccc21 (stereo not shown) [Indatraline]	–	–	Percentage of cell with nuclear Arc immunostaining above 2σ threshold: 0.0%
O=C(O)C(Cc1c[nH]c2ccccc12)N1C(=O)c2ccccc2C1=O (stereo not shown) [RG-108]	–	1.8 fold and 1.4 fold	Percentage of cell with nuclear Arc immunostaining above 2σ threshold: 35.1% and 27.5%
CNC(=O)[C@@H](Cc1ccccc1)N(C)C(=O)[C@@H](Cc1ccc2ccccc2c1)N(C)C(=O)/C=C/CC(C)(C)N [Tabimorelin]	–	–	Percentage of cell with nuclear Arc immunostaining above 2σ threshold [1]: 7.1%
CC(C)n1c(=O)n(C(=O)NC2CC3CCC(C2)N3C)c2ccccc21 (stereo not shown) [BIMU-8]	–	-1.2 fold	Percentage of cell with nuclear Arc immunostaining above 2σ threshold: 16.3%
CN(C)CC(c1ccc(O)cc1)C1(O)CCCCC1 (stereo not shown) [Desvenlafaxine]	33.0%	1.7 fold	–
CN1C[C@H](C(=O)N[C@]2(C)O[C@@]3(O)[C@@H]4CCCN4C(=O)[C@H](Cc4ccccc4)N3C2=O)C[C@@H]2c3cccc4[nH]cc(c34)C[C@H]21.CN1C[C@H](C(=O)N[C@]2(C)O[C@@]3(O)[C@@H]4CCCN4C(=O)[C@H](Cc4ccccc4)N3C2=O)C[C@@H]2c3cccc4[nH]cc(c34)C[C@H]21.O=C(O)C(O)C(O)C(=O)O [Dihydroergotamine tartrate]	22.0%	1.1 fold	–
COc1ccc2[nH]cc(CCNC(C)=O)c2c1 [Melatonin]	25.2%	1.3 fold	–
CCN(C)C(=O)Oc1cccc([C@H](C)N(C)C)c1 [Rivastigmine]	–	1.7 fold	Percentage of cell with nuclear Arc immunostaining above 2σ threshold: 33.7%
CCN(CC)CCNC(=O)c1cc(Br)c(N)cc1OC [Bromopride]	27.7%	1.4 fold	–
CN(C)CC/C=C1/c2ccccc2Sc2ccc(Cl)cc21 [Chlorprothixene]	–	–	Percentage of cell with nuclear Arc immunostaining above 2σ threshold [1]: 1.0%
O=C(O)C(O)C(O)C(=O)O.c1cnc2cc3c(cc2n1)[C@@H]1CNC[C@H]3C1 [Chantix]	–	–	Percentage of cell with nuclear Arc immunostaining above 2σ threshold [1]: 10.1%; Fold-change — Normalized to DMSO control (BDNF) [4]: -1.9 fold
COc1ccc(-c2oc3c(CC=C(C)C)c(O[C@@H]4O[C@H](CO)[C@@H](O)[C@H](O)[C@H]4O)cc(O)c3c(=O)c2O[C@@H]2O[C@@H](C)[C@H](O)[C@@H](O)[C@H]2O)cc1 [Icariin]	43.8%	2.2 fold	–
OCCN1CCN(CCCN2c3ccccc3Sc3ccc(Cl)cc32)CC1 [Perphenazine]	–	–	Percentage of cell with nuclear Arc immunostaining above 2σ threshold [1]: 1.0%
O=c1c(O)c(-c2ccc(O)c(O)c2)oc2cc(O)cc(O)c12 [Sophoretin]	–	–	Percentage of cell with nuclear Arc immunostaining above 2σ threshold [1]: 9.3%
Cc1cc2c(s1)Nc1ccccc1N=C2N1CCN(C)CC1 [Olanzapine]	–	–	Percentage of cell with nuclear Arc immunostaining above 2σ threshold: 19.4%
O=c1cccc2n1C[C@@H]1CNC[C@H]2C1 [Cytisine]	–	–	Percentage of cell with nuclear Arc immunostaining above 2σ threshold: 15.7%
O=C1CC2(CCCC2)CC(=O)N1CCCCN1CCN(c2ncccn2)CC1 [Buspirone]	–	–	Percentage of cell with nuclear Arc immunostaining above 2σ threshold [1]: 10.3%
CCOc1ccc(Cc2nccc3cc(OCC)c(OCC)cc23)cc1OCC [Ethaverine]	–	–	Percentage of cell with nuclear Arc immunostaining above 2σ threshold [1]: 1.3%
Clc1cccc(Cl)c1N=C1NCCN1 [Clonidine]	12.2%	–	–

Molecule	Percentage of cell with nuclear Arc immunostaining above 2σ threshold [2]	Fold-change — Normalized to DMSO control (BDNF) [3]	also measured
Cl.O=C(O)C1=CCCN(CCON=C(c2ccccc2)c2ccccc2)C1 [NNC 711 hydrochloride]	–	1.1 fold	Percentage of cell with nuclear Arc immunostaining above 2σ threshold: 21.4%
CCNC(=O)CC[C@H](N)C(=O)O [Theanine]	–	–	Percentage of cell with nuclear Arc immunostaining above 2σ threshold [1]: 9.1%
O=C(CCNNC(=O)c1ccncc1)NCc1ccccc1 [Nialamide]	29.9%	1.5 fold	–
COc1ccc(/C=C/c2cc(OC)cc(=O)o2)cc1 [Yangonin]	29.7%	1.5 fold	–
CN(C)CCCN1c2ccccc2Sc2ccc(Cl)cc21 [Chlorpromazine]	–	–	Percentage of cell with nuclear Arc immunostaining above 2σ threshold [1]: 0.0%
OC(CCN1CCCC1)(c1ccccc1)C1CCCCC1 (stereo not shown) [Procyclidine hydrochloride]	19.3%	–	–
N#Cc1ccccc1-c1cc(-c2ccccn2)cn(-c2ccccc2)c1=O [Perampanel]	–	–	Percentage of cell with nuclear Arc immunostaining above 2σ threshold: 12.4%
C[S+](CC[C@H](N)C(=O)[O-])C[C@H]1O[C@@H](n2cnc3c(N)ncnc32)[C@H](O)[C@@H]1O (stereo partly shown) [S-Adenosylmethionine]	12.8%	–	–
CC(=O)NCCCS(=O)(=O)O [Acamprosate]	–	–	Percentage of cell with nuclear Arc immunostaining above 2σ threshold: 9.4%
CNC(=O)Oc1ccc2c(c1)[C@]1(C)CCN(C)[C@@H]1N2C [Physostigmine]	–	–	Percentage of cell with nuclear Arc immunostaining above 2σ threshold: 18.3%
CNS(=O)(=O)Cc1ccc2[nH]cc(CCN(C)C)c2c1 [Sumatriptan succinate]	23.4%	1.2 fold	–
NCC1(CC(=O)O)CCCCC1 [Gabapentin]	–	–	Percentage of cell with nuclear Arc immunostaining above 2σ threshold: 9.0%
NS(=O)(=O)c1cc2c(cc1Cl)NC(C1CC3C=CC1C3)NS2(=O)=O (stereo not shown) [Cyclothiazide]	–	–	Percentage of cell with nuclear Arc immunostaining above 2σ threshold [1]: 8.4%
CN1CC2c3ccccc3Oc3ccc(Cl)cc3C2C1 (stereo not shown) [Asenapine]	–	–	Percentage of cell with nuclear Arc immunostaining above 2σ threshold [1]: 11.2%
NC(=O)N1c2ccccc2C=Cc2ccccc21 [Carbamazepine]	–	–	Percentage of cell with nuclear Arc immunostaining above 2σ threshold [1]: 7.2%
O=C1[C@@H]2[C@H]3CC[C@H](C3)[C@@H]2C(=O)N1CCCCN1CCN(c2ncccn2)CC1 [Tandospirone]	25.7%	1.3 fold	–
C[C@@](Cc1ccc(O)c(O)c1)(NN)C(=O)O [Carbidopa]	36.1%	1.9 fold	–
NC(=O)CN1CCCC1=O [Piracetam]	–	–	Percentage of cell with nuclear Arc immunostaining above 2σ threshold [1]: 10.5%
